In ChEMBL document CHEMBL5579851, “Synthesis and antifungal evaluation of novel triazole derivatives bearing a pyrazole-methoxyl moiety” (Eur J Med Chem, 2024):
In brackets after ≈: the same amount, converted by molar mass. Activity calls are given as the source filed them. No cut-off for these calls is given here.

Columns and labels:
[1] = Cytotoxicity against HUVEC cells assessed as cell viability at 128 ug/ml incubated for 24 hrs by CCK-8 assay relative to control; assay type: toxicity, cell-based; details: human, at 128 µg/mL, read-out: Activity
[2] = system: Candida albicans; assay: Antibiofilm activity against Candida albicans SC5314 assessed as increase in matured biofilm distruption at 64 ug/ml incubated for 24 hrs by XTT assay relative to control; assay type: functional; details: dose 64 µg/ml
[3] = system: Saccharomyces cerevisiae; assay: Antifungal activity against recombinant Saccharomyces cerevisiae Y2411 overexpressing ScErg11 assessed as inhibition of fungal growth incubated for 48 hrs by CLSI based broth microdilution assay; assay type: functional
[4] = system: Candida albicans; assay: Antibiofilm activity against Candida albicans SC5314 assessed as inhibition of biofilm formation at 64 ug/mL incubated for 24 hrs by XTT assay relative to control; assay type: functional
[5] = system: Saccharomyces cerevisiae; assay: Antifungal activity against recombinant Saccharomyces cerevisiae Y2769 overexpressing CauErg11 K143R mutant assessed as inhibition of fungal growth incubated for 48 hrs by CLSI based broth microdilution assay; assay type: functional
[6] = system: Saccharomyces cerevisiae; assay: Antifungal activity against recombinant Saccharomyces cerevisiae Y2766 overexpressing CauCdr1 assessed as inhibition of fungal growth incubated for 48 hrs by CLSI based broth microdilution assay; assay type: functional
[7] = system: Candida parapsilosis; assay: Antifungal activity against Candida parapsilosis 22019 assessed as inhibition of fungal growth at 0.125 ug/ml measured up to 48 hrs by TECAN plate reader analysis; assay type: functional, organism-based; details: dose 0.125 µg/ml
[8] = system: Candida tropicalis; assay: Potency index, ratio of fluconazole MIC to test compound MIC for antifungal activity against Candida tropicalis 8915 assessed as inhibition of fungal growth incubated for 48 hrs by CLSI based broth microdilution assay; assay type: functional
[9] = system: Saccharomyces cerevisiae; assay: Antifungal activity against recombinant Saccharomyces cerevisiae Y2301 overexpressing ScErg11 Y140F mutant assessed as inhibition of fungal growth incubated for 48 hrs by CLSI based broth microdilution assay; assay type: functional
[10] = system: Pichia kudriavzevii; assay: Antifungal activity against Candida krusei 4996 assessed as inhibition of fungal growth incubated for 48 hrs by CLSI based broth microdilution assay; assay type: functional
[11] = system: Candida tropicalis; assay: Potency index, ratio of ravuconazole MIC to test compound MIC for antifungal activity against Candida tropicalis 8915 assessed as inhibition of fungal growth incubated for 48 hrs by CLSI based broth microdilution assay; assay type: functional
[12] = system: Candida albicans; assay: Antibiofilm activity against Candida albicans SC5314 assessed as increase in matured biofilm distruption incubated for 24 hrs by XTT assay; assay type: functional, organism-based; details: dose 0.25-64 µg/ml
[13] = system: Candida tropicalis; assay: Antifungal activity against Candida tropicalis 8915 assessed as inhibition of fungal growth incubated for 48 hrs by CLSI based broth microdilution assay; assay type: functional
[14] = system: Saccharomyces cerevisiae; assay: Antifungal activity against recombinant Saccharomyces cerevisiae Y2462 overexpressing ScErg11/ScNcp1 assessed as inhibition of fungal growth incubated for 48 hrs by CLSI based broth microdilution assay; assay type: functional
[15] = biological target: T1, Lanosterol 14-alpha demethylase (Candida albicans (strain SC5314 / ATCC MYA-2876) (Yeast), UniProt P10613); assay: Inhibition of CYP51 in Candida albicans SC5314 assessed as lanosterol level at 0.0625 ug/ml after 8 hrs by GC-MS analysis (reference value: 5.9 %); design: scale not given: the % may be the effect or the level left; details: at 0.0625 µg/mL
T1 sequence (P10613 whole entry): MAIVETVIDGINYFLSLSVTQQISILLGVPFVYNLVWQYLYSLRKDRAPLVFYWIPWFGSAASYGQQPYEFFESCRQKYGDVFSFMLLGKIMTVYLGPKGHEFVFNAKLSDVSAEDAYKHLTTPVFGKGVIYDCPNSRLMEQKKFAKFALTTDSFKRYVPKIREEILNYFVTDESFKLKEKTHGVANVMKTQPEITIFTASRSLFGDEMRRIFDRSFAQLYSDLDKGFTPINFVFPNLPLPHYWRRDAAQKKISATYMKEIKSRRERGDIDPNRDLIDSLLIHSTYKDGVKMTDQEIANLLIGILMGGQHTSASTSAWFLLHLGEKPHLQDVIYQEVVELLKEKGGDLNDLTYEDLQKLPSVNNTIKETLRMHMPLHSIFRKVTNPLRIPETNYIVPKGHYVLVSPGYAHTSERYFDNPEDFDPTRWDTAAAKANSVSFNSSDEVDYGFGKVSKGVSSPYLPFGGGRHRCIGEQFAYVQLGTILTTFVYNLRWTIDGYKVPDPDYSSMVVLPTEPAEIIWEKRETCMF

[16] = biological target: T1, Lanosterol 14-alpha demethylase; assay: Inhibition of CYP51 in Candida albicans SC5314 assessed as ergosterol level at 0.0625 ug/ml after 8 hrs by GC-MS analysis (reference value: 86.2 %); design: scale not given: the % may be the effect or the level left; details: at 0.0625 µg/mL
[17] = system: Saccharomyces cerevisiae; assay: Antifungal activity against recombinant Saccharomyces cerevisiae Y2459 overexpressing CaErg11/CaCpr assessed as inhibition of fungal growth incubated for 48 hrs by CLSI based broth microdilution assay; assay type: functional
[18] = system: Saccharomyces cerevisiae; assay: Antifungal activity against recombinant Saccharomyces cerevisiae Y570 overexpressing CaCdr1 assessed as inhibition of fungal growth incubated for 48 hrs by CLSI based broth microdilution assay; assay type: functional
[19] = system: Saccharomyces cerevisiae; assay: Antifungal activity against recombinant Saccharomyces cerevisiae Y2374 overexpressing CgErg11 assessed as inhibition of fungal growth incubated for 48 hrs by CLSI based broth microdilution assay; assay type: functional
[20] = system: Candida parapsilosis; assay: Antifungal activity against Candida parapsilosis 22019 assessed as inhibition of fungal growth incubated for 48 hrs by CLSI based broth microdilution assay; assay type: functional; details: Lodderomyces parapsilosis
[21] = system: Saccharomyces cerevisiae; assay: Antifungal activity against recombinant Saccharomyces cerevisiae Y2721 overexpressing CpErg11/CpCpr assessed as inhibition of fungal growth incubated for 48 hrs by CLSI based broth microdilution assay; assay type: functional
[22] = system: Saccharomyces cerevisiae; assay: Antifungal activity against recombinant Saccharomyces cerevisiae Y2513 overexpressing ScErg11 Y140H mutant assessed as inhibition of fungal growth incubated for 48 hrs by CLSI based broth microdilution assay; assay type: functional
[23] = system: [Candida] auris; assay: Antifungal activity against fluconazole-resistant Candida auris 919 assessed as inhibition of fungal growth incubated for 48 hrs by CLSI based broth microdilution assay; assay type: functional; details: Candidozyma auris
[24] = system: Saccharomyces cerevisiae; assay: Antifungal activity against recombinant Saccharomyces cerevisiae Y2711 overexpressing CnErg11 assessed as inhibition of fungal growth incubated for 48 hrs by CLSI based broth microdilution assay; assay type: functional
[25] = system: Saccharomyces cerevisiae; assay: Antifungal activity against recombinant Saccharomyces cerevisiae Y2765 overexpressing CauMdr1 assessed as inhibition of fungal growth incubated for 48 hrs by CLSI based broth microdilution assay; assay type: functional
[26] = system: Saccharomyces cerevisiae; assay: Antifungal activity against recombinant Saccharomyces cerevisiae Y525 overexpressing CaMdr1 assessed as inhibition of fungal growth incubated for 48 hrs by CLSI based broth microdilution assay; assay type: functional
[27] = system: Candida albicans; assay: Antifungal activity against Candida albicans SC5314 assessed as inhibition of hyphae length after 3 hrs by inverted microscopic analysis; assay type: functional, organism-based; details: dose 0.0625-1 µg/ml
[28] = system: Candida albicans; assay: Antifungal activity against Candida albicans SC5314 assessed as inhibition of hyphae formation at 0.625 ug/ml after 3 hrs by inverted microscopic analysis relative to control; assay type: functional
[29] = system: Candida albicans; assay: Antifungal activity against Candida albicans SC5314 assessed as inhibition of fungal growth incubated for 48 hrs by CLSI based broth microdilution assay; assay type: functional
[30] = system: Saccharomyces cerevisiae; assay: Antifungal activity against recombinant Saccharomyces cerevisiae Y2716 overexpressing CpErg11 Y132F mutant/ CpCpr assessed as inhibition of fungal growth incubated for 48 hrs by CLSI based broth microdilution assay; assay type: functional
[31] = biological target: T1, Lanosterol 14-alpha demethylase; assay: Inhibition of CYP51 in Candida albicans SC5314 assessed as 14alpha-methylfecosterol level at 0.0625 ug/ml after 8 hrs by GC-MS analysis relative to control; design: scale not given: the % may be the effect or the level left; details: at 0.0625 µg/mL
[32] = system: Cryptococcus neoformans; assay: Antifungal activity against Cryptococcus neoformans 32609 assessed as inhibition of fungal growth incubated for 72 hrs by CLSI based broth microdilution assay; assay type: functional
[33] = system: Saccharomyces cerevisiae; assay: Selectivity index, ratio of MIC for antifungal activity against recombinant Saccharomyces cerevisiae Y525 overexpressing CaMdr1 to MIC for antifungal activity against recombinant Saccharomyces cerevisiae Y2411 overexpressing ScErg11; assay type: functional
[34] = system: Nakaseomyces glabratus; assay: Antifungal activity against Candida glabrata 537 assessed as inhibition of fungal growth incubated for 48 hrs by CLSI based broth microdilution assay; assay type: functional
[35] = system: Candida albicans; assay: Antifungal activity against fluconazole-resistant Candida albicans 904 assessed as inhibition of fungal growth incubated for 48 hrs by CLSI based broth microdilution assay; assay type: functional
[36] = biological target: T1, Lanosterol 14-alpha demethylase; assay: Inhibition of CYP51 in Candida albicans SC5314 assessed as obtusifoliol level at 0.0625 ug/ml after 8 hrs by GC-MS analysis relative to control; design: scale not given: the % may be the effect or the level left; details: at 0.0625 µg/mL
[37] = system: Candida albicans; assay: Antifungal activity against fluconazole-resistant Candida albicans 901 assessed as inhibition of fungal growth incubated for 48 hrs by CLSI based broth microdilution assay; assay type: functional
[38] = system: [Candida] auris; assay: Antifungal activity against fluconazole-resistant Candida auris 918 assessed as inhibition of fungal growth incubated for 48 hrs by CLSI based broth microdilution assay; assay type: functional; details: Candidozyma auris
[39] = system: Candida albicans; assay: Antifungal activity against Candida albicans SC5314 assessed as inhibition of fungal growth at 0.125 ug/ml after 48 hrs by TECAN plate reader analysis relative to control; assay type: functional
[40] = system: [Candida] auris; assay: Antifungal activity against fluconazole-resistant Candida auris 891 assessed as inhibition of fungal growth incubated for 48 hrs by CLSI based broth microdilution assay; assay type: functional; details: Candidozyma auris
[41] = biological target: T1, Lanosterol 14-alpha demethylase; assay: Inhibition of CYP51 in Candida albicans SC5314 assessed as eburicol level at 0.0625 ug/ml after 8 hrs by GC-MS analysis relative to control; design: scale not given: the % may be the effect or the level left; details: at 0.0625 µg/mL
[42] = system: Saccharomyces cerevisiae; assay: Antifungal activity against recombinant Saccharomyces cerevisiae Y2300 overexpressing ScErg11 assessed as inhibition of fungal growth incubated for 48 hrs by CLSI based broth microdilution assay; assay type: functional
[43] = system: Candida albicans; assay: Antifungal activity against Candida albicans 10231 assessed as inhibition of fungal growth incubated for 48 hrs by CLSI based broth microdilution assay; assay type: functional
[44] = system: Saccharomyces cerevisiae; assay: Antifungal activity against recombinant Saccharomyces cerevisiae Y2768 overexpressing CauErg11 T132F mutant assessed as inhibition of fungal growth incubated for 48 hrs by CLSI based broth microdilution assay; assay type: functional
[45] = system: Nakaseomyces glabratus; assay: Antifungal activity against Candida glabrata 537 assessed as inhibition of fungal growth at 2 ug/ml measured up to 48 hrs by TECAN plate reader analysis; assay type: functional, organism-based; details: dose 2.0 µg/ml
[46] = system: Saccharomyces cerevisiae; assay: Antifungal activity against recombinant Saccharomyces cerevisiae Y2767 overexpressing CauErg11 assessed as inhibition of fungal growth incubated for 48 hrs by CLSI based broth microdilution assay; assay type: functional

Question: Which viability at 24 h, 128 ug/ml [1] does the source give for `C[C@@H](OCc1ccn(Cc2ccc(F)cc2)n1)[C@](O)(Cn1cncn1)c1ccc(F)cc1F` here?
Answer: 75.8%

Question: What about the Activity [2] of the same compound?
Answer: 49.2%

Question: And the MIC [3]?
Answer: 0.016 µg/mL

Question: What about the inhibition at 64 µg/mL [4] of the same compound?
Answer: > 55%

Question: And the MIC [5]?
Answer: 0.063 µg/mL

Question: What about the MIC [6] of the same compound?
Answer: 4 µg/mL

Question: What about the inhibition [7] of the same compound?
Answer: Active

Question: What about the Ratio [8] of the same compound?
Answer: 256

Question: What about the MIC [9] of the same compound?
Answer: 0.0313 µg/mL

Question: What about the MIC [10] of the same compound?
Answer: 4 µg/mL (≈ 8.74 µM)

Question: What about the Ratio [11] of the same compound?
Answer: 32

Question: And the Activity [12]?
Answer: Dose-Dependent Effect

Question: And the MIC [13]?
Answer: 0.25 µg/mL (≈ 0.547 µM)

Question: And the MIC [14]?
Answer: 0.125 µg/mL

Question: What about the Activity [15] of the same compound?
Answer: > 25%

Question: What about the Activity [16] of the same compound?
Answer: 1.4%

Question: What about the MIC [17] of the same compound?
Answer: 0.0313 µg/mL

Question: And the MIC [18]?
Answer: 32 µg/mL

Question: And the MIC [19]?
Answer: 0.0313 µg/mL

Question: And the MIC [20]?
Answer: 0.25 µg/mL (≈ 0.547 µM)

Question: And the MIC [21]?
Answer: 0.0313 µg/mL

Question: What about the MIC [22] of the same compound?
Answer: 0.016 µg/mL

Question: What about the MIC [23] of the same compound?
Answer: 16 µg/mL (≈ 35 µM)

Question: What about the MIC [24] of the same compound?
Answer: 0.008 µg/mL

Question: And the MIC [25]?
Answer: 0.25 µg/mL

Question: And the MIC [26]?
Answer: 0.25 µg/mL

Question: And the inhibition [27]?
Answer: Dose-Dependent Effect

Question: What about the inhibition at 0.625 µg/mL [28] of the same compound?
Answer: 100%

Question: And the MIC [29]?
Answer: ≤ 0.125 µg/mL

Question: And the MIC [30]?
Answer: 0.125 µg/mL

Question: What about the Activity [31] of the same compound?
Answer: ~ 20%

Question: What about the MIC [32] of the same compound?
Answer: 0.25 µg/mL (≈ 0.547 µM)

Question: And the Ratio [33]?
Answer: 16

Question: What about the MIC [34] of the same compound?
Answer: ≤ 0.125 µg/mL

Question: What about the MIC [35] of the same compound?
Answer: 8 µg/mL (≈ 17.5 µM)

Question: And the Activity [36]?
Answer: ~ 20%

Question: What about the MIC [37] of the same compound?
Answer: 2 µg/mL (≈ 4.37 µM)

Question: What about the MIC [38] of the same compound?
Answer: 16 µg/mL (≈ 35 µM)

Question: What about the inhibition at 0.125 µg/mL [39] of the same compound?
Answer: 100%

Question: What about the MIC [40] of the same compound?
Answer: 16 µg/mL (≈ 35 µM)

Question: And the Activity [41]?
Answer: ~ 20%

Question: What about the MIC [42] of the same compound?
Answer: 0.063 µg/mL

Question: What about the MIC [43] of the same compound?
Answer: ≤ 0.125 µg/mL

Question: And the MIC [44]?
Answer: 0.063 µg/mL

Question: What about the inhibition [45] of the same compound?
Answer: inactive

Question: What about the MIC [46] of the same compound?
Answer: 0.0313 µg/mL
